# Source: article PMC4635352, “Preventive effect of oral goshajinkigan on chronic oxaliplatin-induced hypoesthesia in rats” (Scientific Reports, 2015)
# Tests used:
# rat sciatic nerve = assay: histological analysis of the sciatic nerve (electron microscopy, ratio of degenerated myelinated fibers); format: in vivo; conditions: oxaliplatin-treated group; 8 wks; n = 3
# Experimental: (§1) To establish the oxaliplatin-induced chronic neuropathy rat model, oxaliplatin (4 mg/mL/kg) or its vehicle (5% glucose solution) was injected intraperitoneally twice weekly for 8 wks. Rats were orally administered GJG (0.3 or 1.0 g/10 mL/kg) or DW 5 times a week for 8 wks.
# The rats were deeply anesthetized with pentobarbital (50 mg/kg), and transcardially perfused with phosphate-buffered saline (pH 7.4), followed by 2.5% phosphate-buffered glutaraldehyde. The sciatic nerves were rapidly dissected, and the samples were kept overnight in the same fixative at 4 °C. The fixed fibers were post-fixed with 1% osmium tetroxide solution for 3 hours, dehydrated in a graded alcohol series, and embedded in Epon815. For light microscopy, semi-thin sections were cut from each block and stained with toluidine blue. The stained sections were observed using a light microscope (BX60, Olympus Corp., Tokyo, Japan). For electron microscopy, ultra-thin sections were cut and stained with uranyl acetate and lead citrate. […] The numbers of normal- and degenerated-myelinated nerve fibers were counted in the area of 0.05 mm^2 (0.01 mm^2 × 5 areas), and the ratio of degenerated nerve fibers was calculated as the percentage of total nerve fibers in each group. In this study, the pathological experts who investigate myelination or demyelination analyzed light and electron microscopy in detail.
# neuro2A cells = conditions: oxaliplatin 30–300 μM, 1 hour
# Experimental: Mouse neuroblastoma Neuro2A cells (ATCC-CCL 131) were grown in Dulbecco’s MEM (Life Technologies) containing 10% fetal bovine serum with 100 units/mL penicillin and 100 mg/mL streptomycin (Life Technologies). The cells were maintained at 37 °C in a humidified atmosphere with 5% CO2 and 95% air. For measurement of ROS generation, the cells were seeded at 2.0 × 10^4 cells/well in poly-D-lysine-coated 96-well plates (BD Falcon, Franklin Lakes, NJ, USA). After plating, the cells were maintained in Dulbecco’s MEM (without phenol red or serum, Life Technologies) with 100 units/mL penicillin and 100 mg/mL streptomycin for more than 16 hours until subsequent experiments. Intracellular ROS generation caused by oxaliplatin in neuro2A cells was determined using CM-H2DCFDA. […] The cells were incubated for 30 minutes with 10 μM CM-H2DCFDA at 37 °C, followed by treatment of drugs for 1 hour. Fluorescence intensity was measured using a microplate reader (Infinite M200; Tecan Japan Co., Ltd., Kanagawa, Japan) at 485 nm (excitation) /520 nm (emission).
# oxaliplatin-treated rats [1] = assay: rotarod test of motor coordination; format: in vivo, rat; conditions: 8 wks; among the tested groups
# Experimental: as §1
# (§2) A rotarod test was carried out on day 57 to evaluate if chronic treatment of oxaliplatin had any effect on motor coordination. Rats were placed on the rotarod (SN-497; Shinano-Seisakusho Ltd., Tokyo, Japan), which is a horizontal rod 10 cm diameter, with their heads directed against the direction of rotation at 5 rpm. The time that the animal stayed on the rod (up to maximum of 120 seconds) was recorded. A wire hang test was performed for assessment of neuromuscular strength on day 53. Animals were placed on the wire net that was held horizontally. The wire screen was first inclined at 90 ° for 20 seconds, then turned to 180 ° for a further 20 seconds. The latency to fall from the wire net inclined at the respective angles was recorded.
# [2] = platinum concentration in dorsal root ganglia (ICP-MS); format: in vivo, rat; conditions: oxaliplatin 4 mg/kg i.p. twice a week; 4 and 8 wks
# Experimental: Lumbar L4-L6 DRG were isolated from each group on days 26 and 54 after oxaliplatin treatment. The tissue samples were pretreated by heating in an acid solution, and the tissue platinum concentration was analyzed using an ICP-MS system (Agilent 7700s; Agilent Technologies, Inc., Santa Clara, CA, USA). The lower limit for quantification of platinum in tissue was 2.0 ng.
# oxaliplatin-treated rats [3] = assay: wire hang test of neuromuscular strength; format: in vivo, rat; conditions: wire screen inclined to 90° or 180° for 20 seconds; among groups
# Experimental: as §1, §2
# oxaliplatin-treated rats [4] = assay: hot plate test for heat hypoalgesia in oxaliplatin-treated rats; format: in vivo, rat
# Experimental: as §1
# (§3) Cold hyperalgesia induced by oxaliplatin was assessed by an acetone test[10]. The acetone test was done on days 24, 38 and 52. Briefly, 250 μL of acetone (Wako Pure Chemical Ltd., Osaka, Japan) was sprayed onto the plantar skin of the right hind paw, and the time spent in elevation and licking of the stimulated hind paw for 60 seconds was measured. Acetone was applied twice at a 15-minute interval, and the average withdrawal response time was calculated. A hot plate test was performed for assessment of thermal hyperalgesia on days 25, 39 and 54. Rats were placed in a Hot/Cold Plate Analgesia Meter (MK-350HC; Muromachi Kikai Co., Ltd., Tokyo, Japan) that kept the temperature of the plate at 50 °C. A cut-off time of 45 seconds was set to prevent tissue damage. The latency of withdrawal response, such as licking and flinching of each hind paw, was recorded.
# [5] = set-up: method as in PMID 11223836; conditions: rats, 5 mg/kg oxaliplatin intraperitoneally; cited from earlier work
# oxaliplatin-treated rats [6] = assay: acetone test for cold hyperalgesia in oxaliplatin-treated rats; format: in vivo, rat; conditions: oxaliplatin 4 mg/kg i.p. twice weekly; 4, 6 and 8 wks; vs naïve control
# Experimental: as §1, §3
# oxaliplatin-treated rats [7] = assay: peripheral blood flow by two-dimensional laser speckle Blood Flow Imager; format: in vivo, rat; conditions: for peripheral blood flow, Head / peripheral blood flow, Left ear / peripheral blood flow, Left forelimb / peripheral blood flow, Left hindlimb / peripheral blood flow, Right ear / peripheral blood flow, Right forelimb / peripheral blood flow, Right hindlimb / peripheral blood flow, Tail: ratio to naïve rats
# Experimental: as §1
# Peripheral blood flow was measured using a two-dimensional laser speckle Blood Flow Imager (Omegazone OZ-2; Omegawave, Inc., Tokyo, Japan). Rats were anesthetized with isoflurane for induction and urethane intraperitoneally for maintenance. Body temperature was maintained at 37.5 ± 0.5 °C using a heating pad. Blood pressure and heart rate were concurrently measured by a tail-cuff apparatus (BP-98A-L; Softron, Tokyo, Japan). Peripheral blood flow in the head, ears, forelimbs, hindlimbs and tail of rats was measured at four defined time points (day 3, 10, 26 and 54). Values were analyzed by analysis software (LIA-V210, Softron). Real image and color-coded images were obtained in high-resolution mode (639 × 480 pixels; 2 images/second). The blood flow value in each peripheral site is expressed as mean blood flow in the region of interest (ROI). The ratio of blood flow rate of treated animals to naïve animals was calculated (%).
# [8] = day 3, L-OHP 4 mg/kg i.p. twice weekly
# [9] = day 10, L-OHP 4 mg/kg i.p. twice weekly
smiles,measurement,setting,value
O=C1[O][Pt]2([NH][C@@H]3CCCC[C@H]3[NH]2)[O]C1=O [oxaliplatin],ratio of degenerated axons in total myelinated nerve fibers,rat sciatic nerve,8.8 ± 2.4%
same,ROS generation in neuro2A cells,neuro2A cells,increased ROS generation
same,motor coordination (rotarod test),oxaliplatin-treated rats [1],no significant differences
same,platinum accumulation in the rat DRG,[2],directly correlated with the duration of oxaliplatin treatment
same,muscle strength (wire screen hanging test),oxaliplatin-treated rats [3],no significant differences
same,latency of withdrawal to heat stimulation (hot plate),"oxaliplatin-treated rats [4]; 4 wks after oxaliplatin treatment, among all groups",no significant difference
same,latency of withdrawal to heat stimulation (hot plate),"oxaliplatin-treated rats [4]; oxaliplatin vs naïve control, 6 wks (p < 0.05) and 8 wks (p < 0.01)",gradually increased
same,time for which maximum plasma platinum was maintained,[5],2 h
same,time to maximum plasma concentration of platinum,[5],approximately 90 minutes
same,duration of withdrawal responses to cold stimulation by acetone,oxaliplatin-treated rats [6],significantly increased
same,"peripheral blood flow, Head","oxaliplatin-treated rats [7]; 4 weeks, L-OHP + DW",89.9 ± 2.6 %
same,"peripheral blood flow, Left ear","oxaliplatin-treated rats [7]; 4 weeks, L-OHP + DW",95.7 ± 2.9%
same,"peripheral blood flow, Left forelimb","oxaliplatin-treated rats [7]; 4 weeks, L-OHP + DW",87.3 ± 2.8 %
same,"peripheral blood flow, Left hindlimb","oxaliplatin-treated rats [7]; 4 weeks, L-OHP + DW",82.0 ± 4.5 %
same,"peripheral blood flow, Right ear","oxaliplatin-treated rats [7]; 4 weeks, L-OHP + DW",91.2 ± 3.4%
same,"peripheral blood flow, Right forelimb","oxaliplatin-treated rats [7]; 4 weeks, L-OHP + DW",89.0 ± 2.7 %
same,"peripheral blood flow, Right hindlimb","oxaliplatin-treated rats [7]; 4 weeks, L-OHP + DW",88.3 ± 5.1%
same,"peripheral blood flow, Tail","oxaliplatin-treated rats [7]; 4 weeks, L-OHP + DW",100.1 ± 2.2%
same,"peripheral blood flow, Head","oxaliplatin-treated rats [7]; 8 weeks, L-OHP + DW",93.5 ± 3.8%
same,"peripheral blood flow, Left ear","oxaliplatin-treated rats [7]; 8 weeks, L-OHP + DW",91.4 ± 3.2%
same,"peripheral blood flow, Left forelimb","oxaliplatin-treated rats [7]; 8 weeks, L-OHP + DW",97.2 ± 1.5%
same,"peripheral blood flow, Left hindlimb","oxaliplatin-treated rats [7]; 8 weeks, L-OHP + DW",95.7 ± 4.7%
same,"peripheral blood flow, Right ear","oxaliplatin-treated rats [7]; 8 weeks, L-OHP + DW",92.3 ± 4.1%
same,"peripheral blood flow, Right forelimb","oxaliplatin-treated rats [7]; 8 weeks, L-OHP + DW",100.3 ± 2.0%
same,"peripheral blood flow, Right hindlimb","oxaliplatin-treated rats [7]; 8 weeks, L-OHP + DW",102.3 ± 4.4%
same,"peripheral blood flow, Tail","oxaliplatin-treated rats [7]; 8 weeks, L-OHP + DW",96.3 ± 3.3%
same,"peripheral blood flow, Head",oxaliplatin-treated rats [7]; [8],108.3 ± 2.9%
same,"peripheral blood flow, Left ear",oxaliplatin-treated rats [7]; [8],104.8 ± 4.3%
same,"peripheral blood flow, Left forelimb",oxaliplatin-treated rats [7]; [8],97.5 ± 3.1%
same,"peripheral blood flow, Left hindlimb",oxaliplatin-treated rats [7]; [8],110.2 ± 0.9%
same,"peripheral blood flow, Right ear",oxaliplatin-treated rats [7]; [8],101.5 ± 5.6%
same,"peripheral blood flow, Right forelimb",oxaliplatin-treated rats [7]; [8],100.8 ± 1.9%
same,"peripheral blood flow, Right hindlimb",oxaliplatin-treated rats [7]; [8],114.2 ± 2.1%
same,"peripheral blood flow, Tail",oxaliplatin-treated rats [7]; [8],98.8 ± 2.5%
same,"peripheral blood flow, Head",oxaliplatin-treated rats [7]; [9],91.9 ± 4.5%
same,"peripheral blood flow, Left ear",oxaliplatin-treated rats [7]; [9],85.3 ± 2.2 %
same,"peripheral blood flow, Left forelimb",oxaliplatin-treated rats [7]; [9],93.1 ± 3.8%
same,"peripheral blood flow, Left hindlimb",oxaliplatin-treated rats [7]; [9],85.8 ± 5.0%
same,"peripheral blood flow, Right ear",oxaliplatin-treated rats [7]; [9],87.7 ± 2.0 %
same,"peripheral blood flow, Right forelimb",oxaliplatin-treated rats [7]; [9],91.4 ± 3.1%
same,"peripheral blood flow, Right hindlimb",oxaliplatin-treated rats [7]; [9],86.5 ± 6.9%
same,"peripheral blood flow, Tail",oxaliplatin-treated rats [7]; [9],90.9 ± 3.4%
same,mean blood flow in the fore- and hindlimbs,"oxaliplatin-treated rats [7]; oxaliplatin, 4 wks",significantly decreased
